Laboratory results: patent US20240002385A1, “PIPERIDINYL-METHYL-PURINE AMINE D-TARTARIC ACID SALTS, CRYSTALLINE FORMS, AND THEIR USE IN TREATING MEDICAL DISEASES AND CONDITIONS” (K36 Therapeutics, Inc., priority 2022, published 2024)
Values after ≈ are worked out from the molar mass of the structure shown.

Assays:
Format in all cases: physicochemical
[1] = Analysis of aqueous solubility (water and fasted state simulated intestinal fluid); details: 37° C.; for solubility at 24 h: thermodynamic from solid, read-out: Test Compound Solubility
Description: Solubility of test compounds in two different liquids was evaluated: (a) water and (b) fasted state simulated intestinal fluid. Test compounds analyzed were: • crystalline (S)-1-((R)-3-amino-1-(4-((6-amino-9H-purin-9-yl)methyl)-6-(2,5-difluoro-4-methoxyphenyl) pyridin-3-yl)piperidin-3-yl)-2,2-difluoroethan-1-ol D-tartaric acid salt, as set forth in Example 4 (hereinafter “Compound A”); • (S)-1-((R)-3-amino-1-(4-((6-amino-9H-purin-9-yl)methyl)-6-(2,5-difluoro-4-methoxyphenyl) pyridin-3-yl)piperidin-3-yl)-2,2-difluoroethan-1-ol fumaric acid salt (hereinafter “Compound B”); • (S)-1-((R)-3-amino-1-(4-((6-amino-9H-purin-9-yl)methyl)-6-(2,5-difluoro-4-methoxyphenyl) pyridin-3-yl)piperidin-3-yl)-2,2-difluoroethan-1-ol free base (hereinafter “Compound C”).
An aliquot of test compound was placed in the liquid at a temperature of 37° C., and then after 24 hours the concentration of dissolved test compound was determined. pH of the solution at 24 hours was also measured.

[2] = Water content by Karl Fischer titration
Description: The title compound was analyzed for water content by Karl Fischer (KF) titration, and determined to have a water content of 1.22 wt %. Karl Fischer (KF) titration for water determination was performed using a Mettler Toledo C20S Coulometric KF Titrator equipped with a current generator cell with a diaphragm, and a double-platinum-pin electrode. The range of detection of the instrument is 1 ppm to 5% water. Aquastar™ CombiCoulomat fritless reagent was used in both the anode and cathode compartments. Samples of approximately 0.03-0.10 g were dissolved in the anode compartment and titrated until the solution potential dropped below 100 mV. Hydranal 1 wt % water standard was used for validation prior to sample analysis.

[3] = Accelerated stability study (six days, 75% RH, 40° C.)
Description: An accelerated stability study was conducted on the crystalline form of (S)-1-((R)-3-amino-1-(4-((6-amino-9H-purin-9-yl)methyl)-6-(2,5-difluoro-4-methoxyphenyl) pyridin-3-yl)piperidin-3-yl)-2,2-difluoroethan-1-ol D-tartaric acid salt, prepared as described in Example 1. Approximately 12 mg of solid was placed into a 4-mL vial, and then the vial was covered with a Kimwipe. The vial was stored for six days inside a stability chamber producing a relative humidity of 75% at 40° C.

[4] = Salt form observations: hydrate formation and hygroscopicity
[5] = Six-month stability study at elevated temperature and relative humidity (40° C.±2° C., 75%±5% RH); details: 40° C./75% RH
Description: A six-month stability study was conducted on the crystalline form of (S)-1-((R)-3-amino-1-(4-((6-amino-9H-purin-9-yl)methyl)-6-(2,5-difluoro-4-methoxyphenyl) pyridin-3-yl)piperidin-3-yl)-2,2-difluoroethan-1-ol D-tartaric acid salt having an XRDP pattern as set forth in Example 4. In particular, an aliquot of the crystalline (S)-1-((R)-3-amino-1-(4-((6-amino-9H-purin-9-yl)methyl)-6-(2,5-difluoro-4-methoxyphenyl) pyridin-3-yl)piperidin-3-yl)-2,2-difluoroethan-1-ol D-tartaric acid salt was stored for six months at a temperature of 40° C.±2° C. where the relative humidity was 75%±5%. A sample of the crystalline (S)-1-((R)-3-amino-1-(4-((6-amino-9H-purin-9-yl)methyl)-6-(2,5-difluoro-4-methoxyphenyl) pyridin-3-yl)piperidin-3-yl)-2,2-difluoroethan-1-ol D-tartaric acid salt was analyzed at the following time points in the experiment: 0 days (i.e., at the start of the experiment), 1 month, 3 months, and 6 months. The following parameters were evaluated at each time point: physical appearance, water content by coulometric Karl Fischer (CKF) determination, purity by ultra-performance liquid chromatography (UPLC), and total amount of related substances. XRPD analysis was performed on a compound sample at time points 0 days and at 6 months.

[6] = Water solubility of crystalline form at pH 6.8 and 37° C.; details: aqueous buffer, pH 6.8, 37° C.
[7] = One year stability study (25° C.±2° C., 60%±5% RH); details: 25° C./60% RH
Description: A one-year stability study was conducted on the crystalline form of (S)-1-((R)-3-amino-1-(4-((6-amino-9H-purin-9-yl)methyl)-6-(2,5-difluoro-4-methoxyphenyl) pyridin-3-yl)piperidin-3-yl)-2,2-difluoroethan-1-ol D-tartaric acid salt having an XRDP pattern as set forth in Example 4. In particular, an aliquot of the crystalline (S)-1-((R)-3-amino-1-(4-((6-amino-9H-purin-9-yl)methyl)-6-(2,5-difluoro-4-methoxyphenyl) pyridin-3-yl)piperidin-3-yl)-2,2-difluoroethan-1-ol D-tartaric acid salt was stored for 1 year at a temperature of 25° C.±2° C. where the relative humidity was 60%±5%. A sample of the crystalline (S)-1-((R)-3-amino-1-(4-((6-amino-9H-purin-9-yl)methyl)-6-(2,5-difluoro-4-methoxyphenyl) pyridin-3-yl)piperidin-3-yl)-2,2-difluoroethan-1-ol D-tartaric acid salt was analyzed at the following time points in the experiment: 0 days (i.e., at the start of the experiment), 1 month, 3 months, 6 months, 9 months, and 12 months. The following parameters were evaluated at each time point: physical appearance, water content by coulometric Karl Fischer (CKF) determination, purity by ultra-performance liquid chromatography (UPLC), and total amount of related substances. XRPD analysis was performed on a compound sample at time points 0 days and at 12 months.

[8] = Hygroscopicity by dynamic vapor sorption; details: transitioned from 5% to 95% relative humidity
Description: The title compound was analyzed for hygroscopicity by dynamic vapor sorption. Dynamic vapor sorption was performed using a Q5000SA. The sample (5-15 mg) was loaded into a metallic quartz sample pan, suspended from a microbalance, and exposed to a humidified stream of nitrogen gas. Weight changes were relative to a matching empty reference pan opposite the sample, suspended from the microbalance. The sample was held for a minimum of 10 min at each humidity level and only progressed to the next humidity level if there was <0.002% change in weight between measurements (interval: 5 s) or 60 min had elapsed. The following program was used: • 1. Equilibration at 50% RH • 2. 50% to 5% (50%, 35%, 20%, and 5%) • 3. 5% to 95%(5%, 20%, 35%, 50%, 65%, 80%, and 95%) • 4. 95% to 5% (95%, 80%, 65%, 50%, 35%, 20%, and 5%) • 5. 5% to 50%(5%, 20%, 35%, and 50%).

[9] = fassif, fasted state simulated intestinal fluid
[10] = fasted state simulated intestinal fluid

COc1cc(F)c(-c2cc(Cn3cnc4c(N)ncnc43)c(N3CCC[C@](N)([C@H](O)C(F)F)C3)cn2)cc1F.O=C(O)C(O)C(O)C(=O)O [Compound A, (S)-1-((R)-3-amino-1-(4-((6-amino-9H-purin-9-yl)methyl)-6-(2,5-difluoro-4-methoxyphenyl)pyridin-3-yl)piperidin-3-yl)-2,2-difluoroethan-1-ol D-tartaric acid salt]
solubility at 24 h [1, 9]: 1600 µg/mL
pH of Liquid Medium at 24 Hours [1, 10]: 5.71
solubility at 24 h ([1]; water): 2400 µg/mL
pH of Liquid Medium at 24 Hours ([1]; water): 3.59
water content by Karl Fischer (KF) titration [2]: 1.22 wt %
XRPD of recovered salt ([3]; after six days, 75% relative humidity, 40° C.): no change of the crystalline form
purity by HPLC ([3]; after the study: six days, 75% relative humidity, 40° C.): 99.45 area percent
purity by HPLC ([3]; before the study): 99.53 area percent
hydrate formation / anhydrous form [4]: could be obtained in anhydrous form
hygroscopicity ([4]; long-duration stability studies): low hygroscopicity
API Purity by UPLC ([5]; 1 month): 100.0 % area in LC trace
Physical Appearance ([5]; 1 month): white wolid
Total Amount of Related Substances by UPLC ([5]; 1 month): 0.05 % w/w
Water Content by CKF ([5]; 1 month): 0.4 % w/w
API Purity by UPLC ([5]; 3 months): 100.0 % area in LC trace
Physical Appearance ([5]; 3 months): white wolid
Total Amount of Related Substances by UPLC ([5]; 3 months): 0.05 % w/w
Water Content by CKF ([5]; 3 months): 0.4 % w/w
API Purity by UPLC ([5]; 6 months): 100.0 % area in LC trace
Physical Appearance ([5]; 6 months): white wolid
Total Amount of Related Substances by UPLC ([5]; 6 months): <0.05 % w/w
Water Content by CKF ([5]; 6 months): 0.4 % w/w
API Purity by UPLC ([5]; day 0): 100.0 % area in LC trace
Physical Appearance ([5]; day 0): white wolid
Total Amount of Related Substances by UPLC ([5]; day 0): <0.05 % w/w
Water Content by CKF ([5]; day 0): 0.2 % w/w
XRPD spectrum after storage versus day 0 ([5]; stored for 6 months): matched the XRPD spectrum obtained on said compound at the beginning of the stability study
solubility at 30 min ([6]; after 30 minutes): > 2000 µg/mL
solubility at 24 h ([6]; after 24 hours): > 2000 µg/mL
API Purity by UPLC ([7]; 1 month): 99.9 % area in LC trace
Physical Appearance ([7]; 1 month): white
Total Amount of Related Substances by UPLC ([7]; 1 month): 0.05 % w/w
Water Content by CKF ([7]; 1 month): 0.3 % w/w
API Purity by UPLC ([7]; 3 months): 100.0 % area in LC trace
Physical Appearance ([7]; 3 months): white
Total Amount of Related Substances by UPLC ([7]; 3 months): 0.05 % w/w
Water Content by CKF ([7]; 3 months): 0.4 % w/w
API Purity by UPLC ([7]; 6 months): 100.0 % area in LC trace
Physical Appearance ([7]; 6 months): white
Total Amount of Related Substances by UPLC ([7]; 6 months): <0.05 % w/w
Water Content by CKF ([7]; 6 months): 0.3 % w/w
API Purity by UPLC ([7]; 9 months): 100.0 % area in LC trace
Physical Appearance ([7]; 9 months): white
Total Amount of Related Substances by UPLC ([7]; 9 months): <0.05 % w/w
Water Content by CKF ([7]; 9 months): 0.2 % w/w
API Purity by UPLC ([7]; 12 months): 100.0 % area in LC trace
Physical Appearance ([7]; 12 months): white
Total Amount of Related Substances by UPLC ([7]; 12 months): 0.05 % w/w
Water Content by CKF ([7]; 12 months): 0.3 % w/w
API Purity by UPLC ([7]; day 0): 100.0 % area in LC trace
Physical Appearance ([7]; day 0): white wolid
Total Amount of Related Substances by UPLC ([7]; day 0): <0.05 % w/w
Water Content by CKF ([7]; day 0): 0.2 % w/w
XRPD spectrum after storage versus day 0 ([7]; stored for 12 months): matched the XRPD spectrum obtained on said compound at the beginning of the stability study
increase in weight in dynamic vapor sorption [8]: 4.858%

COc1cc(F)c(-c2cc(Cn3cnc4c(N)ncnc43)c(N3CCC[C@](N)([C@H](O)C(F)F)C3)cn2)cc1F [Compound C, (S)-1-((R)-3-amino-1-(4-((6-amino-9H-purin-9-yl)methyl)-6-(2,5-difluoro-4-methoxyphenyl)pyridin-3-yl)piperidin-3-yl)-2,2-difluoroethan-1-ol free base]
solubility at 24 h [1, 9]: 298 µg/mL (≈ 545 µM)
pH of Liquid Medium at 24 Hours [1, 10]: 6.61
solubility at 24 h ([1]; water): 0.2 µg/mL (≈ 0.366 µM)
pH of Liquid Medium at 24 Hours ([1]; water): 6.92

COc1cc(F)c(-c2cc(Cn3cnc4c(N)ncnc43)c(N3CCC[C@](N)([C@H](O)C(F)F)C3)cn2)cc1F.O=C(O)/C=C/C(=O)O [Compound B, (S)-1-((R)-3-amino-1-(4-((6-amino-9H-purin-9-yl)methyl)-6-(2,5-difluoro-4-methoxyphenyl)pyridin-3-yl)piperidin-3-yl)-2,2-difluoroethan-1-ol fumaric acid salt]
solubility at 24 h [1, 9]: 506 µg/mL
pH of Liquid Medium at 24 Hours [1, 10]: 6.06
solubility at 24 h ([1]; water): 488 µg/mL
pH of Liquid Medium at 24 Hours ([1]; water): 4.03
hydrate formation / anhydrous form [4]: observed to form hydrates

COc1cc(F)c(-c2cc(Cn3cnc4c(N)ncnc43)c(N3CCC[C@](N)([C@H](O)C(F)F)C3)cn2)cc1F.Cl [hydrochloric acid salt]
hydrate formation / anhydrous form [4]: observed to form hydrates
